Where two headings read alike, the source gives them in different places.
Legend:
hGIPR = target: T1, hGIPR (Homo sapiens, UniProt P48546); experiment: Functional cAMP formation (HTRF) in HEK-293 clonal cells expressing hGIPR, 0.1% bovine casein, without or with 1.0% human serum albumin; assay type: cell-based; details: 37° C.; for Emax: HEK293, cAMP, 0.1% bovine casein and 1.0% human serum albumin, percent of maximal response to GIP(1-42)NH2, read-out: hGIPR Emax, % ± SEM; for EC50: cAMP, 0.1% bovine casein (no human serum albumin), geometric mean, read-out: hGIPR EC50, nM (SEM, n)
T1 construct: expressed in transfected cells
T1 sequence (P48546 22-466): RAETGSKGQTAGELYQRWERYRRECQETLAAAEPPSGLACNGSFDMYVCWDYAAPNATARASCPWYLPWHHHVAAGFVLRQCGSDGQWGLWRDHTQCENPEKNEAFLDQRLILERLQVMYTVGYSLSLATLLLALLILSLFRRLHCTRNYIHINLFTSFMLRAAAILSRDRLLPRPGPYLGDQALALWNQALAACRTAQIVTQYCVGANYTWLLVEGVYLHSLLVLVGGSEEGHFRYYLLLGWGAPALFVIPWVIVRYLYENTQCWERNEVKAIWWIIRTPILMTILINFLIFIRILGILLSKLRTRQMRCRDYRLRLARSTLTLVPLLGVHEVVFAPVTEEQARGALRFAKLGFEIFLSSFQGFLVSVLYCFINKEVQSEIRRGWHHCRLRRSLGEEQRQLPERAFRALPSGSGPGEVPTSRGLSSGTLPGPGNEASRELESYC
Summary of the method: (§1)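 Cells were stimulated with peptide for 30 min at 37° C, then intracellular cAMP was measured by competitive HTRF (665/620 nm ratio) and converted to nM using a cAMP standard curve. Relative EC50 and Emax came from four-parameter logistic fits of percent maximal response against peptide concentration.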

[1] = target: T2, human Gcg receptor (hGcgR) (Homo sapiens, UniProt P47871); experiment: [125I]-Glucagon binding, SPA with membranes of HEK293 cells expressing hGcgR; details: human GcgR; geometric mean (SEM, n); read-out: Binding Affinity Ki, nM (SEM, n) hGCGR
T2 construct: expressed in transfected cells; crude membranes
T2 sequence (P47871 26-477): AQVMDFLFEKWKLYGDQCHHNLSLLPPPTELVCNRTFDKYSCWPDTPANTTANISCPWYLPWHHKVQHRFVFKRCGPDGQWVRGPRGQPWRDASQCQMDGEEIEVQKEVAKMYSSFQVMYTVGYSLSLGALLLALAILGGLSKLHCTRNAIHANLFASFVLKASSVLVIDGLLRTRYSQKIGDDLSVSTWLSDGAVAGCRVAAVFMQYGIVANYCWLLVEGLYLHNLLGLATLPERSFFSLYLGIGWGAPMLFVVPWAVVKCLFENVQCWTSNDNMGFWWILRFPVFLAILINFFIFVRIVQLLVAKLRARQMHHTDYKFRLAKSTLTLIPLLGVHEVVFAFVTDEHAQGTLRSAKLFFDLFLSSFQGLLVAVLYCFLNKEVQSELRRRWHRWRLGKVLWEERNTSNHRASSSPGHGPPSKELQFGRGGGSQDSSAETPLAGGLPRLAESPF

hGLP-1R = hGLP-1R (Homo sapiens, UniProt P43220); experiment: Functional cAMP formation (HTRF) in HEK-293 clonal cells expressing hGLP-1R, 0.1% bovine casein, without or with 1.0% human serum albumin; assay type: cell-based; set-up: expressed in transfected cells; details: 37° C.; for EC50: cAMP, 0.1% bovine casein (no human serum albumin), geometric mean, read-out: hGLP-1R EC50, nM (SEM, n)
hGLP-1R, sequence (P43220 24-463): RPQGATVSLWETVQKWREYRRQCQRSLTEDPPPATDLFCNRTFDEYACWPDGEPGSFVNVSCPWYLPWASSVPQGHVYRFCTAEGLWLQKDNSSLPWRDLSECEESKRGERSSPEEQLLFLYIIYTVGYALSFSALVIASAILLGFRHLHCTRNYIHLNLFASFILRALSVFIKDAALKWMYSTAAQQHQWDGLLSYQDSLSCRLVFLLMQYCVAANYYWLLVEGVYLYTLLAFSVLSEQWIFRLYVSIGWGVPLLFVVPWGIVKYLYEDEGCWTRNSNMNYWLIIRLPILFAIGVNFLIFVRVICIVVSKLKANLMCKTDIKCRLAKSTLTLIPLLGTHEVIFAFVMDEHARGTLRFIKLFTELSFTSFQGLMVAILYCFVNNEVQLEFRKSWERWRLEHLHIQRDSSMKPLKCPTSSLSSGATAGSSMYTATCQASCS
Summary of the method: as §1

[2] = target: T3, human GIP receptor (hGIPR) (Homo sapiens, UniProt P48546); experiment: [125I]-GIP binding, SPA with membranes of CHO cells expressing hGIPR; details: human GIPR; geometric mean (SEM, n); read-out: Binding Affinity Ki, nM (SEM, n) hGIPR
T3 construct: expressed in transfected cells; crude membranes
T3 sequence (P48546 22-466): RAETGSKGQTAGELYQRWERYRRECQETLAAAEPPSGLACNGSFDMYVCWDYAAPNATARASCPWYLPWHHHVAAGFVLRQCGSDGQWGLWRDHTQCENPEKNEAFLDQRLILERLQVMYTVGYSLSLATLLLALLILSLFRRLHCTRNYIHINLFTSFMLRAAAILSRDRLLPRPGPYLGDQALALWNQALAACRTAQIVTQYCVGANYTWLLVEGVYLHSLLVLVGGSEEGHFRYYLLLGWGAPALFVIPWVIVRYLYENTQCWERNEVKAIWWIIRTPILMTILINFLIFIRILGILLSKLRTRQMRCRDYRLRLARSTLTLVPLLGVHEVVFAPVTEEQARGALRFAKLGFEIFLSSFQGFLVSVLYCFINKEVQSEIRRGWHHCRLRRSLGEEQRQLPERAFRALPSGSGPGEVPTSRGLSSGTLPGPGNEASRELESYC

[3] = target: T4, human GLP-1 receptor (hGLP-1R) (Homo sapiens, UniProt P43220); experiment: [125I]-GLP-1 binding, SPA with membranes of HEK293 cells expressing hGLP-1R; details: human GLP-1R; geometric mean (SEM, n); read-out: Binding Affinity Ki, nM (SEM, n) hGLP-1R
T4 construct: expressed in transfected cells; crude membranes
T4 sequence (P43220 24-463): as the sequence (P43220 24-463) above

hGCGR = target: T5, hGCGR (Homo sapiens, UniProt P47871); experiment: Functional cAMP formation (HTRF) in HEK-293 clonal cells expressing hGCGR, 0.1% bovine casein, without or with 1.0% human serum albumin; assay type: cell-based; details: cAMP, 37° C., read-out: hGCGR EC50, nM (SEM, n)
T5 construct: expressed in transfected cells
T5 sequence (P47871 26-477): as the sequence (P47871 26-477) above
Summary of the method: as §1

[4] = target: T6, human glucose-dependent insulinotropic polypeptide (GIP) receptor (human) (UniProt P48546); experiment: cell-based or functional assay
T6 sequence (looked up): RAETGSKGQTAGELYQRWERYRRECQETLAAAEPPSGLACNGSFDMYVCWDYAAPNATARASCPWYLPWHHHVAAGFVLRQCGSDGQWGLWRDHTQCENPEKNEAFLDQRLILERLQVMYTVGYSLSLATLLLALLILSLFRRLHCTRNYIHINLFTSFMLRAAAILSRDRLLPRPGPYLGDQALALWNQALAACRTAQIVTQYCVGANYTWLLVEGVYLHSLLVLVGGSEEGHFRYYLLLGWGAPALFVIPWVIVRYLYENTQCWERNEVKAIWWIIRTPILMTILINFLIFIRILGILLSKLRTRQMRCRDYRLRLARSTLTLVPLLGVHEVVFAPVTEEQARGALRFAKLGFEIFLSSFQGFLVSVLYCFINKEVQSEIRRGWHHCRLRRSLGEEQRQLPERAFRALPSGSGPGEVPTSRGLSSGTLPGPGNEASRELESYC

[5] = target: human glucagon receptor (human) (UniProt P47871); experiment: cell-based or functional assay
[6] = target: human glucagon-like peptide-1 (GLP-1) receptor (human) (UniProt P43220); experiment: cell-based or functional assay
human GIP receptor = target: T7, human GIP receptor (human, UniProt P48546 22-466); experiment: cell-based or functional assay
T7 sequence (looked up): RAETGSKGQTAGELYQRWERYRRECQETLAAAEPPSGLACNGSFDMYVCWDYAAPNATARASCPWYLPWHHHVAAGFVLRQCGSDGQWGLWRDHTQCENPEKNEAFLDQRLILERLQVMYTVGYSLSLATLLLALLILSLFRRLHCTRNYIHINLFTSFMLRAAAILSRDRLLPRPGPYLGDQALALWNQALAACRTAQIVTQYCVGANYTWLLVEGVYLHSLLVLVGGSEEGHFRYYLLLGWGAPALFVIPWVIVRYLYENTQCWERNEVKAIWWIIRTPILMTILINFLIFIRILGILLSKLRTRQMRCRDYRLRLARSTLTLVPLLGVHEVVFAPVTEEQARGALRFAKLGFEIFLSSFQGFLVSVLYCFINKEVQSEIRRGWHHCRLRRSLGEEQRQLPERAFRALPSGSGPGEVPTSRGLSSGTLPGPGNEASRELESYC

human GLP-1 receptor = human GLP-1 receptor (human, UniProt P43220 24-463); experiment: cell-based or functional assay
human glucagon receptor = human glucagon receptor (human, UniProt P47871 26-477); experiment: cell-based or functional assay
[7] = 0.1% bovine casein (no human serum albumin), geometric mean
[8] = 0.1% bovine casein and 1.0% human serum albumin, geometric mean (SEM, n)

| Molecule | Emax (hGIPR) [%] | EC50 (hGIPR) [nM] | Ki [1] [nM] | Emax (hGLP-1R; HEK293, cAMP, 0.1% bovine casein and 1.0% human serum albumin, percent of maximal response to GLP-1(7-36)NH2, read-out: hGLP-1R Emax, % ± SEM) [%] | EC50 (hGLP-1R) [nM] | Ki [2] [nM] | Ki [3] [nM] | EC50 (hGCGR; [7]) [nM] | EC50 (hGCGR; [8]) [nM] | cAMP EC50 [4] [nM] | cAMP Emax [4] [%] | cAMP EC50 [5] [nM] | cAMP EC50 [6] [nM] | cAMP Emax [6] [%] | cAMP EC50 (1.0% HSA) (human GIP receptor) [nM] | cAMP Emax (1.0% HSA) (human GIP receptor) [%] | cAMP EC50 (1.0% HSA) (human GLP-1 receptor) [nM] | cAMP Emax (1.0% HSA) (human GLP-1 receptor) [%] | cAMP EC50 (1.0% HSA) (human glucagon receptor) [nM] |
| --- | --- | --- | --- | --- | --- | --- | --- | --- | --- | --- | --- | --- | --- | --- | --- | --- | --- | --- | --- |
| CC[C@H](C)[C@H](NC(=O)[C@H](CC(C)C)NC(=O)[C@](C)(Cc1ccc(O)cc1)NC(=O)[C@H](CCCCNC(=O)COCCOCCNC(=O)COCCOCCNC(=O)COCCOCCNC(=O)CC[C@H](NC(=O)CCCCCCCCCCCCC(=O)O)C(=O)O)NC(=O)[C@@H](NC(=O)[C@H](Cc1ccccc1)NC(=O)[C@H](CCCN)NC(=O)C(C)(C)NC(=O)[C@H](CCC(N)=O)NC(=O)[C@H](C)NC(=O)[C@H](CCC(N)=O)NC(=O)[C@H](CCCN)NC(=O)[C@H](CC(=O)O)NC(=O)[C@H](CC(C)C)NC(=O)[C@](C)(CC(C)C)NC(=O)[C@@H](NC(=O)C(C)(C)NC(=O)[C@H](Cc1ccc(O)cc1)NC(=O)[C@H](CC(=O)O)NC(=O)[C@H](CO)NC(=O)[C@@H](NC(=O)[C@](C)(Cc1ccccc1F)NC(=O)[C@@H](NC(=O)CNC(=O)[C@H](CCC(=O)O)NC(=O)C(C)(C)NC(=O)[C@@H](N)Cc1ccc(O)cc1)[C@@H](C)O)[C@@H](C)O)[C@@H](C)CC)[C@@H](C)CC)C(=O)N[C@@H](CCCCNC(=O)COCCOCCNC(=O)COCCOCCNC(=O)COCCOCCNC(=O)CC[C@H](NC(=O)CCCCCCCCCCCCC(=O)O)C(=O)O)C(=O)NCC(=O)NCC(=O)N1CCC[C@H]1C(=O)N[C@@H](CO)C(=O)N[C@@H](CO)C(=O)NCC(=O)N[C@@H](C)C(=O)N1CCC[C@H]1C(=O)N1CCC[C@H]1C(=O)N1CCC[C@H]1C(=O)N[C@@H](CO)C(N)=O [Example 479] | 89.5 | 0.00718 | 213 | 95.3 | 0.115 | 0.0249 | 0.246 | > 9950 | > 9950 | – | – | – | – | – | – | – | – | – | – |
| CCCCCCCCCCCC(=O)N[C@@H](CCC(=O)NCCOCCOCC(=O)NCCOCCOCC(=O)NCCCC[C@H](NC(=O)[C@H](CCCN)NC(=O)[C@H](CC(=O)O)NC(=O)[C@H](CC(C)C)NC(=O)[C@](C)(CC(C)C)NC(=O)[C@@H](NC(=O)C(C)(C)NC(=O)[C@H](Cc1ccncc1)NC(=O)[C@H](CC(=O)O)NC(=O)[C@H](CO)NC(=O)[C@@H](NC(=O)[C@](C)(Cc1ccccc1F)NC(=O)[C@@H](NC(=O)CNC(=O)[C@H](CCC(=O)O)NC(=O)C(C)(C)NC(=O)[C@@H](N)Cc1ccc(O)cc1)[C@@H](C)O)[C@@H](C)O)[C@@H](C)CC)C(=O)N[C@@H](C)C(=O)N[C@@H](CCC(N)=O)C(=O)NC(C)(C)C(=O)NCC(=O)N[C@@H](Cc1ccccc1)C(=O)N[C@H](C(=O)N[C@H](CCC(=O)O)C(=O)N[C@@](C)(Cc1ccc(O)cc1)C(=O)N[C@@H](CC(C)C)C(=O)N[C@H](C(=O)N[C@@H](CCCCNC(=O)COCCOCCNC(=O)COCCOCCNC(=O)CC[C@H](NC(=O)CCCCCCCCCCC)C(=O)O)C(=O)NCC(=O)NCC(=O)N1CCC[C@H]1C(=O)N[C@@H](CO)C(=O)N[C@@H](CO)C(=O)NCC(=O)N[C@@H](C)C(=O)N1CCC[C@H]1C(=O)N1CCC[C@H]1C(=O)N1CCC[C@H]1C(=O)N[C@@H](CO)C(N)=O)[C@@H](C)CC)[C@@H](C)CC)C(=O)O [Example 494] | 92.6 | 0.0123 | 135 | – | 0.15 | 0.0197 | 0.188 | > 9950 | > 9950 | – | – | – | – | – | – | – | – | – | – |
| YXEGTXTSDXSIXLDXIAQXEFIXXLIKGGPSSGAPPPSK (Y-Aib-EGT-αMeF(2F)-TSD-4Pal-SI-αMeL-LD-Orn-IAQ-Aib-EFI-(D-Glu)-αMeY-LIK((2-[2-(2-Amino-ethoxy)-ethoxy]-acetyl)2-CO-(CH2)12-CO2H)GGPSSGAPPPSK((2-[2-(2-Amino-ethoxy)-ethoxy]-acetyl)2-CO-(CH2)12-CO2H)-NH2) [Example 223] | – | – | – | – | – | – | – | – | – | 0.0252 | 103 | > 9950 | 1.43 | 94 | 7.84 | 79.2 | 90.5 | 115 | > 9950 |

Reference: patent US20230265151A1, “GIP/GLP1 CO-AGONIST COMPOUNDS” (priority 2020, published 2023)
